Usually MIC stands for the smallest concentration in the dilution series that meets the test's criterion for growth inhibition. A word on the IC50: it is the concentration needed to halve the response being measured. Low readings indicate greater potency, high ones weaker potency.

Data set [1] concerns Candida albicans. The data set can be described thus: Antifungal activity against azole-susceptible Candida albicans MYA2876. It is filed as functional.
In data set [2] the test system is Candida albicans. The data set can be described thus: Antifungal activity against azole-resistant Candida albicans ATCC 64124. It is filed as functional.
The next data set has as its system Rhodotorula mucilaginosa. The data set can be described thus: Antifungal activity against Rhodotorula pilimanae. The data set is classed as functional.
Data set [3] relates to Escherichia coli. The data set can be described thus: Antibacterial activity against Escherichia coli ATCC 25922. The data set is classed as functional.
For data set [4], the system named is Enterococcus faecalis. Briefly: Antibacterial activity against vancomycin-resistant Enterococcus faecalis ATCC 51299. The data set is classed as functional.
In data set [5] the test system is Staphylococcus aureus. The data set can be described thus: Antibacterial activity against Staphylococcus aureus ATCC 25923. It is filed as functional.
Data set [6] deals with Staphylococcus aureus. The data set can be described thus: Antibacterial activity against methicillin-resistant Staphylococcus aureus ATCC 33591. It is filed as functional.
Data set [7] deals with SK-OV-3. The data set can be described thus: Cytotoxicity against human SKOV3 cells at 10 ug/ml after 48 hrs by MTT assay. To be noted: sk-ov-3, 48 h. The data set is classed as cell-based. For orientation: Tetrazolium dyes change colour on reduction, which living cells bring about.
The subject of another data set is Cryptococcus neoformans. The data set can be described thus: Antifungal activity against Cryptococcus neoformans. The data set is classed as functional.
Data set [8] has as its system SK-OV-3. Briefly: Cytotoxicity against human SKOV3 cells after 48 hrs. It is filed as cell-based. To be noted: SK-OV-3, 48 h.
For data set [9], the system named is Klebsiella pneumoniae. Briefly: Antibacterial activity against Klebsiella pneumoniae ATCC 13883. The data set is classed as functional.
In another data set the test system is Aspergillus flavus. The data set can be described thus: Antifungal activity against Aspergillus flavus. It is filed as functional.
Data set [10] concerns Pseudomonas aeruginosa. The data set can be described thus: Antibacterial activity against Pseudomonas aeruginosa ATCC 27853. The data set is classed as functional.
The subject of data set [11] is Escherichia coli. The data set can be described thus: Antibacterial activity against Escherichia coli ATCC 25922 at 5 mg/ml. The data set is classed as functional.
Data set [12] relates to Pseudomonas aeruginosa. The data set can be described thus: Antibacterial activity against Pseudomonas aeruginosa ATCC 27853 at 5 mg/ml. It is filed as functional.
The subject of data set [13] is Staphylococcus aureus. The data set can be described thus: Antibacterial activity against methicillin-resistant Staphylococcus aureus ATCC 33591 at 5 mg/ml. The data set is classed as functional.
Data set [14] concerns Enterococcus faecalis. The data set can be described thus: Antibacterial activity against vancomycin-resistant Enterococcus faecalis ATCC 51299 at 5 mg/ml. It is filed as functional.
Data set [15] has as its system Klebsiella pneumoniae. The data set can be described thus: Antibacterial activity against Klebsiella pneumoniae ATCC 13883 at 5 mg/ml. The data set is classed as functional.
The subject of data set [16] is Staphylococcus aureus. Briefly: Antibacterial activity against Staphylococcus aureus ATCC 25923 at 5 mg/ml. The data set is classed as functional.
A further data set has as its system Fusarium graminearum. The data set can be described thus: Antifungal activity against Fusarium graminearum B4-A5 assessed as cell membrane disruption at MIC after 1 hr by Sytox Green dye based fluorescence assay. The data set is classed as functional.
Data set [17] has as its system Candida albicans. Briefly: Antifungal activity against Candida albicans ATCC 64124 assessed as cell membrane disruption at MIC after 1 hr by Sytox Green dye based fluorescence assay. It is filed as functional.

≈ marks a conversion by molar mass, not a printed value. Calls of active or inactive are those of the source.

Consider `OC(Cn1cncn1)(Cn1cncn1)c1ccc(F)cc1F` [FLUCONAZOLE], for which the MIC was 1.56 µg/mL (≈ 5.09 µM) in the data set with Candida albicans [1] and above 250 µg/mL against Candida albicans [2].
Turning to `CCCCCC[n+]1nn(CCCCCCn2n[n+](CCCCCC)c3c2C(=O)c2ccccc2C3=O)c2c1C(=O)c1ccccc1C2=O.O=S(=O)([O-])C(F)(F)F.O=S(=O)([O-])C(F)(F)F`, the MIC is 15.6 µg/mL in the data set with Rhodotorula mucilaginosa; 8 to 16 µg/mL in the data set on Escherichia coli [3]; above 250 µg/mL against Candida albicans [1]; 4 µg/mL with Enterococcus faecalis [4]; 4 µg/mL in the data set on Staphylococcus aureus [5]; 8 to 16 µg/mL against Staphylococcus aureus [6]. In addition, the MIC is 125 µg/mL in the data set with Cryptococcus neoformans; 250 µg/mL with Candida albicans [2]; 250 µg/mL against Klebsiella pneumoniae [9]; above 250 µg/mL against Aspergillus flavus; 16 µg/mL with Pseudomonas aeruginosa [10]. The Activity result with SK-OV-3 [7] is listed as “Non-Toxic”. The same compound displayed an IC50 with SK-OV-3 [8] of 109 µg/mL.
Regarding `O=C1c2ccccc2C(=O)c2c1nnn2CCCCCCn1nnc2c1C(=O)c1ccccc1C2=O`, the result in the data set with Escherichia coli [11], in the data set with Pseudomonas aeruginosa [12], in the data set on Staphylococcus aureus [13], in the data set with Enterococcus faecalis [14], in the data set with Klebsiella pneumoniae [15] and in the data set on Staphylococcus aureus [16] was inactive.
As for `CCCCCCCCS(=O)(=O)OC[C@H]1O[C@H](O[C@@H]2[C@@H](O)[C@H](O[C@H]3O[C@H](CN)[C@@H](O)[C@H](O)[C@H]3O)[C@@H](N)C[C@H]2N)[C@H](O)[C@@H](N)[C@@H]1O.Cl.Cl.Cl.Cl`, the MIC is 15.6 µg/mL in the data set on Candida albicans [1], 7.8 µg/mL in the data set on Cryptococcus neoformans, 31.3 µg/mL with Candida albicans [2] and above 250 µg/mL with Aspergillus flavus.
Turning to `C[n+]1nn(CCCCCCn2n[n+](C)c3c2C(=O)c2ccccc2C3=O)c2c1C(=O)c1ccccc1C2=O.O=S(=O)([O-])C(F)(F)F.O=S(=O)([O-])C(F)(F)F`, the MIC against Rhodotorula mucilaginosa is 62.5 µg/mL; with Escherichia coli [3] it was above 250 µg/mL; in the data set with Candida albicans [1], above 250 µg/mL; against Enterococcus faecalis [4], 16 µg/mL; against Staphylococcus aureus [5] it was 0.125 µg/mL; in the data set with Staphylococcus aureus [6] it was above 250 µg/mL. The MIC was 125 µg/mL in the data set on Cryptococcus neoformans; above 250 µg/mL against Candida albicans [2]; 250 µg/mL in the data set with Klebsiella pneumoniae [9]; above 250 µg/mL in the data set with Aspergillus flavus; 250 µg/mL with Pseudomonas aeruginosa [10]. Moreover, the Activity result in the data set on SK-OV-3 [7] is recorded as “Toxic”. This compound came in with an IC50 in the data set on SK-OV-3 [8] of 46.1 µg/mL.
In the case of `NC[C@H]1O[C@H](O[C@H]2[C@H](O)[C@@H](O[C@H]3O[C@H](CO)[C@@H](O)[C@H](N)[C@H]3O)[C@H](N)C[C@@H]2N)[C@H](O)[C@@H](O)[C@@H]1O` [KANAMYCIN], the MIC is 4 µg/mL (≈ 8.26 µM) against Escherichia coli [3]; 250 µg/mL (≈ 516 µM) with Enterococcus faecalis [4]; 2 to 4 µg/mL (≈ 4.13 to 8.26 µM) in the data set with Staphylococcus aureus [5]; 125 to 250 µg/mL (≈ 258 to 516 µM) against Staphylococcus aureus [6]; 1 µg/mL (≈ 2.06 µM) in the data set on Klebsiella pneumoniae [9]; 125 µg/mL (≈ 258 µM) with Pseudomonas aeruginosa [10].
In the case of `CC[n+]1nn(CCCCCCn2n[n+](CC)c3c2C(=O)c2ccccc2C3=O)c2c1C(=O)c1ccccc1C2=O.O=S(=O)([O-])C(F)(F)F.O=S(=O)([O-])C(F)(F)F`, the MIC in the data set with Escherichia coli [3] was above 250 µg/mL; with Candida albicans [1] it was above 250 µg/mL; with Enterococcus faecalis [4], 32 µg/mL; against Staphylococcus aureus [5] it was 0.125 µg/mL; in the data set on Staphylococcus aureus [6] it was above 250 µg/mL; with Candida albicans [2], above 250 µg/mL. The figures for the MIC with Klebsiella pneumoniae [9], in the data set with Aspergillus flavus and against Pseudomonas aeruginosa [10] were 250 µg/mL, above 250 µg/mL and 250 µg/mL, respectively.
As for `CCCCCCCC[n+]1nn(CCCCCCn2n[n+](CCCCCCCC)c3c2C(=O)c2ccccc2C3=O)c2c1C(=O)c1ccccc1C2=O.O=S(=O)([O-])C(F)(F)F.O=S(=O)([O-])C(F)(F)F`, the MIC was 2 µg/mL in the data set on Rhodotorula mucilaginosa; 2 to 4 µg/mL against Escherichia coli [3]; 3.91 µg/mL in the data set on Candida albicans [1]; 1 µg/mL against Enterococcus faecalis [4]; 4 µg/mL against Staphylococcus aureus [5]; 4 to 8 µg/mL against Staphylococcus aureus [6]. Moreover, the MIC in the data set on Cryptococcus neoformans turned out to be 3.9 µg/mL; against Candida albicans [2], 3.91 µg/mL; in the data set on Klebsiella pneumoniae [9], 16 µg/mL; against Aspergillus flavus, 15.6 µg/mL; in the data set with Pseudomonas aeruginosa [10] it was 4 µg/mL. For the same compound, in the data set on SK-OV-3 [7], the Activity entry is “Non-Toxic”. In the data set with SK-OV-3 [8], this compound gave an IC50 of 74 µg/mL.
In the case of `CN[C@H](CC(C)C)C(=O)N[C@H]1C(=O)N[C@@H](CC(N)=O)C(=O)N[C@H]2C(=O)N[C@H]3C(=O)N[C@H](C(=O)N[C@H](C(=O)O)c4cc(O)cc(O)c4-c4cc3ccc4O)[C@H](O)c3ccc(c(Cl)c3)Oc3cc2cc(c3O[C@@H]2O[C@H](CO)[C@@H](O)[C@H](O)[C@H]2O[C@H]2C[C@](C)(N)[C@H](O)[C@H](C)O2)Oc2ccc(cc2Cl)[C@H]1O` [VANCOMYCIN], the MIC in the data set on Escherichia coli [3] was 64 to 125 µg/mL (≈ 44.2 to 86.3 µM); with Enterococcus faecalis [4] it was 125 µg/mL (≈ 86.3 µM); against Staphylococcus aureus [6], 2 to 4 µg/mL (≈ 1.38 to 2.76 µM); against Klebsiella pneumoniae [9], above 250 µg/mL; in the data set with Pseudomonas aeruginosa [10], above 250 µg/mL.
Regarding `NCC[C@H](O)C(=O)N[C@@H]1C[C@H](N)[C@@H](O[C@H]2O[C@H](CN)[C@@H](O)[C@H](O)[C@H]2O)[C@H](O)[C@H]1O[C@H]1O[C@H](CO)[C@@H](O)[C@H](N)[C@H]1O` [AMIKACIN], the MIC against Escherichia coli [3] was 1 µg/mL (≈ 1.71 µM); in the data set with Enterococcus faecalis [4], above 250 µg/mL; against Staphylococcus aureus [5], 0.5 µg/mL (≈ 0.854 µM); against Staphylococcus aureus [6] it was 16 µg/mL (≈ 27.3 µM); against Klebsiella pneumoniae [9] it was 1 µg/mL (≈ 1.71 µM); with Pseudomonas aeruginosa [10] it was 1 µg/mL (≈ 1.71 µM).
Regarding `CCCCCCCCCC[n+]1nn(CCCCCCn2n[n+](CCCCCCCCCC)c3c2C(=O)c2ccccc2C3=O)c2c1C(=O)c1ccccc1C2=O.O=S(=O)([O-])C(F)(F)F.O=S(=O)([O-])C(F)(F)F`, the MIC against Rhodotorula mucilaginosa is 2 µg/mL; in the data set with Escherichia coli [3], 4 to 8 µg/mL; against Candida albicans [1] it was 3.91 µg/mL; with Enterococcus faecalis [4], 1 µg/mL; in the data set on Staphylococcus aureus [5] it was 8 µg/mL; in the data set with Staphylococcus aureus [6], 4 to 8 µg/mL. The MIC stood at 2 µg/mL against Cryptococcus neoformans; 3.91 µg/mL in the data set with Candida albicans [2]; 32 µg/mL in the data set on Klebsiella pneumoniae [9]; 7.81 µg/mL against Aspergillus flavus; 4 µg/mL in the data set with Pseudomonas aeruginosa [10]. Moreover, the result in the data set with Fusarium graminearum and in the data set with Candida albicans [17] was Active. In the data set with SK-OV-3 [7], the Activity entry is “Non-Toxic”. The compound also came in with an IC50 with SK-OV-3 [8] of 68.4 µg/mL.
In the case of `CCCC[n+]1nn(CCCCCCn2n[n+](CCCC)c3c2C(=O)c2ccccc2C3=O)c2c1C(=O)c1ccccc1C2=O.O=S(=O)([O-])C(F)(F)F.O=S(=O)([O-])C(F)(F)F`, the MIC with Escherichia coli [3] was above 250 µg/mL; in the data set with Candida albicans [1], above 250 µg/mL; against Enterococcus faecalis [4], 16 µg/mL; with Staphylococcus aureus [5], 0.125 µg/mL; in the data set with Staphylococcus aureus [6] it was above 250 µg/mL; against Candida albicans [2] it was 250 µg/mL. The MIC against Klebsiella pneumoniae [9] is 250 µg/mL; with Aspergillus flavus it was above 250 µg/mL; with Pseudomonas aeruginosa [10] it was 32 µg/mL. Moreover, in the data set on SK-OV-3 [7], the Activity entry is recorded as “Non-Toxic”. Also, half-maximal inhibition with SK-OV-3 [8] (IC50) required 115 µg/mL.

For the origin of these results see ChEMBL document CHEMBL3992508, “Synthesis and bioactivity investigation of quinone-based dimeric cationic triazolium amphiphiles selective against resistant fungal and bacterial pathogens” (Eur J Med Chem, 2017).
